Assays:
HCMV (AD169 strain) = assay type: cell-based, human cytomegalovirus; details: for HCMV yield, fold change relative to no treatment (NT): MRC5, 0.5 IU/cell, additive 2 h after infection, OA/LA/LLA up to 100 μM, EPA 75 μM, DHA 50 μM, AG 250 μM, cholesterol 13 μM; for HCMV yield, fold change relative to no treatment (NT) / HCMV production relative to no treatment: 96 h; for Effect of including the fatty acid on the HCMV yield increase given by aminoguanidine: in the presence of aminoguanidine; for HCMV production relative to no treatment: Example 2, MRC5, 0.5 IU/cell, FIG. 2
Description: Cells were infected with the AD169 strain of HCMV at a multiplicity of 0.5 infectious units/cell, and immediately following a 2-hour adsorption period, cells were fed with medium (Dulbecco's Modified Eagle Medium, DMEM) containing 10% fetal calf serum plus various fatty acids, cholesterol and carbonyl scavenging compound. At 96 hours post infection, infectious virus in the medium was assayed by fluorescent focus assay using antibody to the HCMV IE1 protein.
Briefly, About 90% confluent MRC5 human fibroblasts were infected with HCMV at a multiplicity of 0.5 IU/cell. Two hours after infection, medium was replaced with fresh medium containing 10% fetal calf serum and either of oleic acid (OA, up to about 100 μM), linoliec acid (LA, up to about 100 μM), α-linolenic acid (LLA, up to about 100 μM), eicosapentaenoic acid (EPA, up to about 75 μM), or docosahexaenoic acid (DHA, up to about 50 μM). The experiment was also performed in the presence of either aminoguanidine (AG, up to about 250 μM) or cholesterol (chol., up to about 13 μM). Virus production at 96 hours after infection was determined by fluorescent focus assay in MRC-5 cells and shown as a fold change relative to no treatment (NT) which was 5×10^5 infectious units. The fold-changes are the average of two independent infections.
Briefly, about 90% confluent MRC5 fibroblasts were infected with HCMV at a multiplicity of 0.5 IU/cell. Two hours after infection, medium was replaced with fresh medium containing 10% fetal calf serum and α-tocopherol (α-T) or aminoguanidine (AG) at indicated concentrations. Virus production at 96 h after infection was determined by fluorescent focus assay in which MRC-5 cells and shown as a fold change relative to no treatment (NT). The fold-changes are the average of two independent infections. Results are set out in FIG. 2.

VZV [1] = test: Yield of cell-free infectious VZV from infected MRC5 cells, plaque assay on ARPE-19 cells; assay type: cell-based, varicella zoster virus; details: Example 6; MOI 1:100, 72 hours after infection; HSA, DHA 25 μM, AA 100 μM, with 10 μM α-T; cholesterol 13 μM
VZV [2] = test: as above; assay type: cell-based, varicella zoster virus; details: for VZV yield, fold change relative to NT / VZV yield in comparison to no treatment: MOI 1:50, 72 h; for VZV yield in comparison to no treatment: Example 5, lipids at 6 hpi plus 10 μM αT, HSA, OSA 25 μM, sonicated immediately
Description: For this test, MRC5 cells (passage 20-25) were seeded at a density of 300.000 cell/100 mm culture dish and grown in 15 ml of DMEM containing 10% fetal calf serum plus 2 mM glutamax (Invitrogen) at 35° C. A lipid mixture (LM-1, 1 ml/liter medium, Sigma Aldrich #L5146) was added to the cells either at the time of seeding or 1 day after seeding. Three days later, the culture medium was replaced with 10 ml growth medium containing 50 mM sucrose as a stabilizer. The cells were further incubated for 3 days and growth medium was replaced with fresh medium containing no sucrose. After cells reached confluence, they were infected with VZV by adding infected cells (1 infected cell/50 uninfected cells; infected cells were from a preparation frozen in a solution of 10% DMSO plus 90% fetal calf serum and stored in liquid nitrogen). At the time of infection, the cultures were re-fed with DMEM containing 10% fetal calf serum plus 2 mM glutamax. Arachidonic acid (AA)+alpha-tocopherol (αT) or DHA+αT were added at the indicated times. 72 hours after infection, cells were washed twice with PBS, and incubated in 10 ml of PBS containing 50 mM ammonium chloride for 50 minutes at 4° C. The cells were harvested and frozen in PSGC buffer (Harper et al., Arch Virol 143:1163-70, 1998) at −80° C. Infectious virus was subsequently quantified by plaque assay of sonicated cells on ARPE-19 cells (American Type Culture Collection). Results are set out in FIG. 3.
Briefly, in these repeat experiments, MRC5 cells were infected with VZV at an MOI=1:50. AA, DHA, and αT were added to the cells at 6 hpi as indicated. 72 hours after infection, the cells were harvested into PSGC buffer and frozen at −80° C. for later processing. After thawing, the cells were sonicated and the yield of cell free VZV quantified by standard plaque assay on ARPE-19 cells. Fold change relative to no treatment (NT) is shown. […] The fold-changes are the average of two independent infections.
In brief, MRC5 cells were infected with VZV at an M01=1:50. Lipid mixture 1(LM-1) was added to the cells immediately after cell seeding. At 6 hours after infection, up to about 100 μM AA or […] was added to cells together with up to about 10 μM αT. 72 hours after infection, the cells were harvested into PSGC buffer and either frozen at −80° C. and sonicated later for the release of virus (frozen cells) or immediately sonicated after harvesting and supernatants containing the cell-free VZV were frozen at −80° C. (frozen sup.) prior to titration. Cell-free VZV yield was quantified by plaque assay on APRE-19 cells. Fold change relative to no treatment (NT) is shown. The numbers above the bars indicate the amount of virus obtained per ml in the corresponding treatment. The results are set out in FIG. 5.
Briefly, MRC5 cells were infected with VZV at an MOI=1:50. Six hours after infection cells were treated with indicated combinations of lipids plus 10 μM αT. Hexacosanoic acid (HSA) and octacosanoic acid (OSA) were dissolved in 20 mg/ml α-cyclodextin (Sigma-Aldrich) in PBS by sonication and added to a solution of 10 mg/ml fatty acid-free BSA (Sigma-Aldrich) in PBS (1:1, v/v) to give a stock concentration of 10 mM for each fatty acid. HSA, OSA, and DHA were used at 25 μM, and AA was used at 25 μM. Two sets of fatty acid concentrations was used for combination treatments: DHA, AA, and HSA was either added at concentrations of 25 μM, 100 μM, and 25 μM (high), or 10 μM, 50 μM, and 10 μM (low), respectively. 72 hours after infection, the cells were harvested into PSGC buffer, sonicated immediately and the yield of cell free VZV quantified by plaque assay on ARPE-19 cells. Fold change relative to no treatment (NT) is shown. The fold-changes are the average of two independent infections.
Briefly, MRC5 cells were grown in DMEM containing 10% fetal calf serum, 2 mM glutamax (Invitrogen) at 35° C. as described in the text. […]

MRC5 cells = test: Cytotoxicity evident upon visual inspection in VZV-infected MRC5 cells; assay type: cell-based, human; details: 100 μM
[3] = 25 μM fatty acid at 6 hpi, absence of αT

Compound: CC/C=C\C/C=C\C/C=C\CCCCCCCC(=O)O [LLA, α-linolenic acid]
- HCMV yield, fold change relative to no treatment (NT) (HCMV (AD169 strain)): about 1.2 fold
- Effect of including the fatty acid on the HCMV yield increase given by aminoguanidine (HCMV (AD169 strain); MRC5, 96 h): reduced

Compound: Cc1c(C)c2c(c(C)c1O)CC[C@@](C)(CCC[C@H](C)CCC[C@H](C)CCCC(C)C)O2 [αT, alpha-tocopherol]
- HCMV production relative to no treatment (HCMV (AD169 strain)): enhances the production of HCMV

Compound: CC(C)CCC[C@@H](C)[C@H]1CC[C@H]2[C@@H]3CC=C4C[C@@H](O)CC[C@]4(C)[C@H]3CC[C@]12C [cholesterol]
- HCMV yield, fold change relative to no treatment (NT) (HCMV (AD169 strain)): no effect
- Effect of cholesterol on the enhancing effects of fatty acids on HCMV yield (HCMV (AD169 strain); MRC5, 96 h, cholesterol up to about 13 μM): did not improve, and in some cases inhibited

Compound: CCCCC/C=C\C/C=C\C/C=C\C/C=C\CCCC(=O)O [AA, Arachidonic acid]
- VZV yield relative to no treatment (VZV [1]): elevated the yield of VZV
- VZV yield, fold change relative to NT (VZV [2]; [3]): enhanced the yield of virus
- VZV yield, fold change relative to NT (VZV [2]; 25 μM fatty acid at 6 hpi, presence of αT): increased the virus yield
- VZV yield, fold change relative to NT (VZV [2]; 100 μM fatty acid at 6 hpi, absence of αT): inhibited virus production
- VZV yield, fold change relative to NT (VZV [2]; 100 μM fatty acid at 6 hpi, presence of αT): 5 fold

Compound: CC/C=C\C/C=C\C/C=C\C/C=C\C/C=C\C/C=C\CCC(=O)O [DHA, docosahexaenoic acid]
- VZV yield, fold change relative to NT (VZV [2]; [3]): about 1.5 fold
- HCMV yield, fold change relative to no treatment (NT) (HCMV (AD169 strain)): 4.6 fold
- Cytotoxicity (MRC5 cells; absence of αT): toxic
- Cytotoxicity (MRC5 cells; presence of αT): toxic

Compound: N=C(N)NN [aminoguanidine]
- HCMV production relative to no treatment (HCMV (AD169 strain)): enhances the production of HCMV
- HCMV yield, fold change relative to no treatment (NT) (HCMV (AD169 strain)): about 2.6 fold

Compound: CC/C=C\C/C=C\C/C=C\C/C=C\C/C=C\CCCC(=O)O [EPA, eicosapentaenoic acid]
- HCMV yield, fold change relative to no treatment (NT) (HCMV (AD169 strain)): 2.5 fold

Compound: CCCCC/C=C\C/C=C\CCCCCCCC(=O)O [LA, linoleic acid]
- HCMV yield, fold change relative to no treatment (NT) (HCMV (AD169 strain)): little effect on the yield
- Effect of including the fatty acid on the HCMV yield increase given by aminoguanidine (HCMV (AD169 strain); MRC5, 96 h): reduced

Compound: CCCCCCCCCCCCCCCCCCCCCCCCCC(=O)O [HSA, hexacosanoic acid]
- VZV yield relative to no treatment (VZV [1]): elevated the yield of VZV
- VZV yield in comparison to no treatment (VZV [2]): improved virus yields

Compound: CCCCCCCC/C=C\CCCCCCCC(=O)O [OA, oleic acid]
- Reduction of VZV production, factor (VZV [2]; 100 μM): 2 fold
- HCMV yield, fold change relative to no treatment (NT) (HCMV (AD169 strain)): reduced the yield
- Effect of including the fatty acid on the HCMV yield increase given by aminoguanidine (HCMV (AD169 strain); MRC5, 96 h): reduced
- Cytotoxicity (MRC5 cells; absence of αT): without causing observable cellular toxicity

Compound: CCCCCCCCCCCCCCCCCCCCCCCCCCCC(=O)O [OSA, octacosanoic acid]
- VZV yield in comparison to no treatment (VZV [2]): improved virus yields

From patent publication US9212349B2, “Method to produce virus in cultured cells” (priority 2011, dated 2015)
